Source: article PMC6032235 (2018)

Legend:
Test in all cases: CD
[1] = system: B-linker (B1/B2 assembly) (DNA, aptamer) GAGAGTCAATCGACCTGGGGGAGTATTGCGGAGGAAGGTACGCATTCGCTATA/GAGAGTCAATCGTATAGCGAATGCGT; details: 300 mM NaCl, 5 mM MgCl2; 20 mM Tris-HCl; 5 μM DNA, 1 mM ATP; peak shift 273 to 279 nm; CD alone not conclusive
[2] = system: B1 (DNA, aptamer) GAGAGTCAATCGACCTGGGGGAGTATTGCGGAGGAAGGTACGCATTCGCTATA; details: 300 mM NaCl, 5 mM MgCl2; 20 mM Tris-HCl; 5 μM DNA, 1 mM ATP, room temperature; peak shift 272 to 277 nm
[3] = system: L1 (random DNA sequence) (DNA, single strand) GAGAGTCAATCGTCTATTCGCATGAGAATTCCATTCACCGTAAG; details: 300 mM NaCl, 5 mM MgCl2; 20 mM Tris-HCl; 5 μM DNA, 1 mM ATP; nonspecific peak shift 277 to 280 nm

`Nc1ncnc2c1ncn2[C@@H]1O[C@H](COP(=O)(O)OP(=O)(O)OP(=O)(O)O)[C@@H](O)[C@H]1O` was tested, and the binding [1] was “yes”, the binding [2] was “yes” and the binding [3] was “no”.
